Measurements: US12053451B2, “Arginase inhibitors and their therapeutic applications” (OncoArendi Therapeutics S.A., priority 2016, dated 2024)
Structures can show the parent of a compound that is named as a salt.

Columns and labels:
[1] = biological target: T1, recombinant human arginase 1 (Homo sapiens, UniProt P05089); assay: Human arginase activity assay (urea measurement), arginase 1; type: biochemical; details: recombinant human arginase 1, pH 7.4, 37° C., 60 min; * = value for the most potent diastereoisomer or the mixture of diastereoisomers; read-out: Activity Class (ARG I)
T1 construct: purchased Biolegend 552502
T1 sequence (P05089 1-322): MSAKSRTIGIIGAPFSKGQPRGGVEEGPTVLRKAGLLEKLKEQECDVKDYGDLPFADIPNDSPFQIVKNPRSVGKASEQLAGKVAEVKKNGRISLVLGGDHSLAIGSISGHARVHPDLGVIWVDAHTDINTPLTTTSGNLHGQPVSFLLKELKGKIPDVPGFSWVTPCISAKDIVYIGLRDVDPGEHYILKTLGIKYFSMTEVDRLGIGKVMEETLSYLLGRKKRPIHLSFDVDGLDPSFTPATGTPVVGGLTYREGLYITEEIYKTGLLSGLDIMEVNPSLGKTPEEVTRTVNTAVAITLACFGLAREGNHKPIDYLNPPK
Outline: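 Arginase activity was measured as urea formed from L-arginine over 60 min at 37 °C. Reaction stopped with oPA/NED acidic reagent and absorbance read at 530 nm after 20 min colour development. Values were background-subtracted and normalised to no-compound activity, and IC50 was derived from percent-inhibition concentration-response regression.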

[2] = biological target: T2, recombinant human arginase 2 (Homo sapiens, UniProt P78540); assay: Human arginase activity assay (urea measurement), arginase 2; type: biochemical; details: for selected examples class estimated from % of inhibition at 1 μM and 100 μM, * = most potent diastereoisomer or mixture of diastereoisomers, read-out: Activity Class (ARG II)
T2 construct: made in house; host or cells: CHO
T2 sequence (P78540 23-354): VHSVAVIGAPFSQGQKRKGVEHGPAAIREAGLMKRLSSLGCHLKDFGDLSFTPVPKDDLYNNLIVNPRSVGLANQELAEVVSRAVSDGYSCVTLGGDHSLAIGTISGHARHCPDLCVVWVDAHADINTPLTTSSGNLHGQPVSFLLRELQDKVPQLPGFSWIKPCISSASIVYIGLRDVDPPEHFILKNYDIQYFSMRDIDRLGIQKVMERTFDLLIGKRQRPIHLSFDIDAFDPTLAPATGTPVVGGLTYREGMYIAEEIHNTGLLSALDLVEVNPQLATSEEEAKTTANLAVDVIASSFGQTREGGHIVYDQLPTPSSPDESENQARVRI
Outline: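 Recombinant CHO-expressed human arginase 2 converted 20 mM L-arginine with 150 μM MnCl2 in phosphate buffer pH 7.4 for 60 min at 37 °C. Urea was measured colorimetrically at 530 nm after background subtraction, and IC50 fitted. Some compounds were classed by % inhibition at 1 μM and 100 μM.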

[3] = biological target: T3, intracellular arginase in macrophages isolated from murine bone marrow (BMDM) (Mus musculus, UniProt Q61176); assay: Cell-based assay: intracellular arginase in bone marrow derived macrophages (BMDM), urea level; parameters: species or system Balb/c mice; details: murine BMDM with M-CSF and IL-4, urea measured 24 hours after compound; * = most potent diastereoisomer or mixture of diastereoisomers; read-out: Activity Class (BMDM)
T3 construct: endogenous in cells; host or cells: primary bone marrow derived macrophages from Balb/c mice, M-CSF and IL-4 treated
T3 sequence (Q61176 1-323): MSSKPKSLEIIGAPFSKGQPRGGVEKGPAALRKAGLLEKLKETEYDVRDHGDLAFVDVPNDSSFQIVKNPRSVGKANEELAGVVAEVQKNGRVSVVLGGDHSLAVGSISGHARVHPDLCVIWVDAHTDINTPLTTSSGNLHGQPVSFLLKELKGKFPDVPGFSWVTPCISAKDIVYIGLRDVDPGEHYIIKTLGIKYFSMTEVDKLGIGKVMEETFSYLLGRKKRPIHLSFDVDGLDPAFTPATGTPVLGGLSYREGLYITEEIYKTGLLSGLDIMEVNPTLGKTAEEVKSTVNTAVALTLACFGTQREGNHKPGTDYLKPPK
Protocol: Efficacy of Selected Examples Towards Intracellular Arginase in Macrophages Isolated from Murine Bone Marrow—Bone Marrow Derived Macrophages (BMDM)
Materials & Methods: The assay was performed according to modified literature protocol modification (Pineda-Torra I et al., Methods Mol Biol. 2015; 1339:101-9. Mia S et al. Scand J Immunol. 2014 May; 79(5):305-14). The femurs and tibias were isolated from Balb/c mice. Bones were cleaned from all attached tissues by using sterile swab without affecting the bone structure. Bones were sterilized by immersion in 70% ethanol for 5 min and then rinsed in PBS. The sides of the bones were cut off and flush with cold sterile PBS by using 26-G needle S into a 50 mL sterile tube with a cell strainer (Falcon™, Cat. No. U00149), until bone cavity appeared white. Then the cells were centrifuged (5 min at 500×G, 4° C.), washed twice with PBS and counted. Cells were plated in Petri dish in density of 1×10^6/mL and cultured in DMEM (Gibco, Cat. No. 31331-029) with 10% FBS, 1% pen-strep and 50 ng/mL M-CSF (PeproTech, Cat. No. 315-02), (37° C., 5% CO2). After five days cells were subcultured into P96 plate (BD, Cat. No. 353072) in density of 64 000 cells/well in medium supplemented with 50 ng/mL M-CSF and 20 ng/mL IL-4 (Biomibo Cat. No. 214-1). One day later exemplary compounds (dissolved in PBS) were added in several different concentrations and 24 hours later the level of urea was measured in each well (Jung D et al., Clin Chem. 1975, 21(8):1136-40). The concentration of urea in the absence of any compound was considered as the maximum. The absorbance of cell culture media (background) was subtracted from all the values.
For selected examples the activity class for ARG2 was estimated based on % of inhibition for 1 μM and 100 μM concentration of tested compounds.

SMILES	IC50 [1] [nM]	IC50 [2] [nM]	IC50 [3] [nM]
CN(C)C[C@@H]1CC[C@@H](CCB(O)O)C[C@]1(N)C(=O)O [Example 38, (1R,2S,5R)-1-amino-5-(2-boronoethyl)-2-((dimethylamino)methyl)cyclohexanecarboxylic acid]	1 to 100	1 to 100	1 to 100
NC1CC(CCB(O)O)CC1(N)C(=O)O (stereo not drawn) [Example 62, 1,2-diamino-4-(2-boronoethyl)cyclopentanecarboxylic acid dihydrochloride]	1000 to 10000	100 to 1000	10000 to 100000
CC1(O)CCC(CCB(O)O)CC1(N)C(=O)O (stereo not drawn) [Example 50, 1-amino-5-(2-boronoethyl)-2-hydroxy-2-methylcyclohexanecarboxylic acid hydrochloride]	100 to 1000	100 to 1000	10000 to 100000
CC1(C)CCN(C[C@@H]2CC[C@@H](CCB(O)O)C[C@]2(N)C(=O)O)CC1 (racemic) [Example 26, rac-(1R,2S,5R)-1-amino-5-(2-boronoethyl)-2-((4,4-dimethylpiperidin-1-yl)methyl)cyclohexanecarboxylic acid dihydrochloride]	100 to 1000	100 to 1000	1000 to 10000
N[C@@H](CCCCB(O)O)C(=O)O [Comparative example 1, reference compound]	100 to 1000	1000 to 10000	1000 to 10000
CN(C)C[C@H]1CC[C@@H](CCB(O)O)C[C@]1(N)C(=O)O (racemic) [Example 18, rac-(1R,2R,5R)-1-Amino-5-(2-boronoethyl)-2-((dimethylamino)methyl)-cyclohexane-1-carboxylic acid dihydrochloride]	100 to 1000	1000 to 10000	100 to 1000
CN(C)C1CC(CCB(O)O)CC(N)(C(=O)O)C1 (stereo not drawn) [Example 65, 1-amino-3-(2-boronoethyl)-5-(dimethylamino)cyclohexane-1-carboxylic acid dihydrochloride]	10000 to 100000	10000 to 100000	> 100000
N[C@@]1(C(=O)O)CCC[C@@H](CCB(O)O)C1 (racemic) [Example 10, rac-(1S,3R)-1-Amino-3-(2-boronoethyl)cyclohexane-1-carboxylic acid hydrochloride]	1000 to 10000	1000 to 10000	10000 to 100000
CC1(C)[C@H]2C[C@@H]3OB(CC[C@@H]4CC[C@@H](CN5CCCC5)[C@@](N)(C(=O)O)C4)O[C@]3(C)[C@@H]1C2 [Example 45, (1R,2S,5R)-1-amino-2-(pyrrolidin-1-ylmethyl)-5-(2-((3aR,4R,6R,7aS)-3a,5,5-trimethylhexahydro-4,6-methanobenzo[d][1,3,2]dioxaborol-2-yl)ethyl)cyclohexanecarboxylic acid dihydrochloride]	1 to 100	100 to 1000	1 to 100
CCN(CC)C[C@@H]1CC[C@@H](CCB(O)O)C[C@]1(N)C(=O)O (racemic) [Example 30, rac-(1R,2S,5R)-1-amino-5-(2-boronoethyl)-2-((diethylamino)methyl)cyclohexanecarboxylic acid dihydrochloride]	100 to 1000	100 to 1000	100 to 1000
CN(C)C[C@@H]1CC[C@@H](CCB2O[C@H]3C[C@H]4C[C@H](C4(C)C)[C@@]3(C)O2)C[C@]1(N)C(=O)O [Example 44, (1R,2S,5R)-1-amino-2-((dimethylamino)methyl)-5-(2-((3aR,4R,6R,7aS)-3a,5,5-trimethylhexahydro-4,6-methanobenzo[d][1,3,2]dioxaborol-2-yl)ethyl)cyclohexane-1-carboxylic acid dihydrochloride]	1 to 100	1 to 100	1 to 100
NC1CCC(CCB(O)O)CC1(N)C(=O)O (single isomer, unassigned) [Example 48, 1,2-diamino-5-(2-boronoethyl)cyclohexanecarboxylic acid dihydrochloride]	100 to 1000	100 to 1000	10000 to 100000
CNC1(C(=O)O)C[C@H](CCB(O)O)CCC1CN (single isomer, unassigned) [Example 68, dihydrochloride]	10000 to 100000	10000 to 100000	10000 to 100000
NC(CCCCB(O)O)(CCNCCCc1ccc(Cl)cc1Cl)C(=O)O (stereo not drawn) [Comparative example 2, reference compound]	1 to 100	100 to 1000	1000 to 10000
NC1(C(=O)O)CC(CCB(O)O)CC=C1Cc1ccc(Cl)cc1 (stereo not drawn) [Example 53, 1-amino-5-(2-boronoethyl)-2-(4-chlorobenzyl)cyclohex-2-enecarboxylic acid hydrochloride]	100 to 1000	1000 to 10000	1000 to 10000
NCC1CCC(CCB(O)O)CC1(N)C(=O)O (stereo not drawn) [Example 24, 1-Amino-2-(aminomethyl)-5-(2-boronoethyl)cyclohexane-1-carboxylic acid]	1 to 100	100 to 1000	10000 to 100000
NC1(C(=O)O)C[C@H](CCB(O)O)CCC1CCN1CCCC1 (stereo partly drawn) [Example 46, (5R)-1-amino-5-(2-boronoethyl)-2-(2-(pyrrolidin-1-yl)ethyl)cyclohexanecarboxylic acid dihydrochloride]	1 to 100	1 to 100	100 to 1000
